Consider one molecule from ChEMBL document CHEMBL4477268, “2-(4-Fluorophenyl)-quinazolin-4(3H)-one as a novel tyrosinase inhibitor: Synthesis, inhibitory activity, and mechanism” (Bioorg Med Chem, 2016).

Assay [1] addresses T1, Tyrosinase (Agaricus bisporus) (UniProt O42713).
T1 sequence (whole entry): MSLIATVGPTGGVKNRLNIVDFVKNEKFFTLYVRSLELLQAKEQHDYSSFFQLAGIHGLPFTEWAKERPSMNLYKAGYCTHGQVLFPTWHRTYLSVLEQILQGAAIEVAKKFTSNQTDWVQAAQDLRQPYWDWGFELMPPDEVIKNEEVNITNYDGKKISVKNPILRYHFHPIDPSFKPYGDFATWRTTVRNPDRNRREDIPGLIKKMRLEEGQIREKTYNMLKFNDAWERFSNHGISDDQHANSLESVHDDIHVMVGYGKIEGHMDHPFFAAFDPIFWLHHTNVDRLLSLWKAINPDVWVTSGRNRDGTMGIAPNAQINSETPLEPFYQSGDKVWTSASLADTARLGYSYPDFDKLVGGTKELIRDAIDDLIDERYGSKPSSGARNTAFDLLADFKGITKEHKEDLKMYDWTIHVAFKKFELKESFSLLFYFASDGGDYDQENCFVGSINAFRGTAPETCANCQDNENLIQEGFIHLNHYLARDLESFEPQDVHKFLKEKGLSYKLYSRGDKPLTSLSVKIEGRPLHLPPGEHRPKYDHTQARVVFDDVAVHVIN
The assay is described as follows: Binding affinity to mushroom tyrosinase assessed as induction of red shift in spectra by fluorescence-spectrophotometric analysis.

In assay [2] the target is T1, Tyrosinase (Agaricus bisporus). Kind of assay: (§1) Inhibition of diphenolase activity of mushroom tyrosinase using L-DOPA as substrate by spectrophotometric analysis.
Assay [3] deals with T2, Tyrosinase (Agaricus bisporus, UniProt O42713).
T2 sequence (O42713 whole entry): T1 sequence (whole entry)
Described as §1.

In assay [4] the target is T1, Tyrosinase (Agaricus bisporus). Kind of assay: Binding affinity to mushroom tyrosinase assessed as reduction in fluorescence intensity by spectrophotometric analysis.
The target of assay [5] is T2, Tyrosinase. Kind of assay: Mixed-type reversible inhibition of diphenolase activity of mushroom tyrosinase using L-DOPA as substrate by Lineweaver-Burk double reciprocal-plot analysis.
Assay [6] can be described thus: Binding affinity to tyrosine assessed as decrease in maximum fluorescence emission intensity of tyrosine at 48 uM by spectrophotometric analysis. Further details: scale not given: the % may be the effect or the level left.
Assay [7] has as its target T1, Tyrosinase (Agaricus bisporus). Kind of assay: Binding affinity to mushroom tyrosinase assessed as reduction in fluorescence intensity at 0 to 10 uM by fluorescence-spectrophotometric analysis. More on the design: scale not given: the % may be the effect or the level left.
Assay [8] in a line: Binding affinity to L-DOPA assessed as decrease in maximum fluorescence emission intensity of L-DOPA at 48 uM by spectrophotometric analysis. Further details: scale not given: the % may be the effect or the level left.
The target of assay [9] is T2, Tyrosinase. The assay is described as follows: Mixed-type reversible inhibition of diphenolase activity of mushroom tyrosinase assessed as enzyme-substrate complex using L-DOPA as substrate by Lineweaver-Burk double reciprocal plot analysis.

Activity calls are given as the source filed them. The rule behind the calls is not given here.

`Oc1nc(-c2ccc(F)cc2)nc2ccccc12`: the outcome in assay [1] was Active. In [2], the inhibition result is “Dose-dependent effect”. In addition, the IC50 on Tyrosinase [3] turned out to be 120 µM. In addition, the Activity entry in assay [4] is “Dose-dependent effect”; in [6], 53.1%; in [7] it was 77.2%; in assay [8], 44.8%. The Ki at Tyrosinase [5] came out at 703 µM; at Tyrosinase [9] it was 222 µM.

One may read the IC50 as the concentration at which inhibition is half-maximal. The term Ki denotes a measure of affinity in units of concentration, obtained from inhibition or displacement.
